Assay results as given in patent US12550923B2, “Allulose syrups” (Tate & Lyle Solutions USA LLC, priority 2015, dated 2026).

Test: Crystallization stability of seeded allulose syrups
Format: physicochemical
Details: 25° C.
Procedure: Allulose syrups were prepared at 50, 60, 71, 77, and 85% DS and were equilibrated at 25° C., 15° C. and 4° C. These samples were seeded with ˜0.1% crystalline allulose and crystallization was monitored visually and by change in dry solids of the syrup fraction after 1 month of storage.
A change in DS greater than 0 indicates crystallization, and a larger number indicates a larger amount of crystallization. […] Therefore, for storage of a crystallization stable syrup at ambient and reduced temperatures, 77% solids or less is desirable. For cool (<25° C.) temperatures, 71% solids or less is more desirable.

SMILES: O=C(CO)C(O)C(O)C(O)CO (stereo not shown) [allulose]
- limit of solubility (DS): ~77%
